# Earlier results as cited in PMC8400941, “Preclinical Toxicity and Safety of MM-129—First-in-Class BTK/PD-L1 Inhibitor as a Potential Candidate against Colon Cancer” (Pharmaceutics, 2021).
# What was measured:
# patients = settings: chemotherapy regimens used in CRC; cited from earlier work
# [1] = parameters: method as in PMID 24079553; settings: cited from earlier work
# BFU-E growth = system: BFU-E growth; parameters: method as in PMID 17318617; settings: multiple administration, 350 mg/kg/day, transient; cited from earlier work
# zebrafish embryos/larvae = settings: 5 μM; cited from earlier work
smiles,measurement,setting,value
"O=c1[nH]cc(F)c(=O)[nH]1 [5-FU, 5-fluorouracil]",patients with hepatotoxicity,patients,up to 47%
CC[C@H](CO)Nc1nc(NCc2ccc(-c3ccccn3)cc2)c2ncn(C(C)C)c2n1 [CR8],elimination half-life,[1],about 3 h
CC[C@H](CO)Nc1nc(NCc2ccccc2)c2ncn(C(C)C)c2n1 [seliciclib],"BFU-E growth, of the controls",BFU-E growth,less than 50%
same,"embryos with absence of swimming activity, lack of heartbeat and tail blood flow",zebrafish embryos/larvae,57%
same,larvae with curved body,zebrafish embryos/larvae,50%
same,larvae with edema (both mild and severe),zebrafish embryos/larvae,82%
